Results: US6861390B2, “Derivatives of UK-2A” (priority 2001, dated 2005)

What was measured:
[1] = tested on: Leptosphaeria nodorum (LEPTNO); test: Glume Blotch of Wheat, whole plant 24 Hour Protectant (T2); details: Parastagonospora nodorum; wheat (cultivar Yuma), sprayed at 100 ppm, inoculated after 24 hours; read-out: T2 LEPTNO in vivo 1 Day Protectant, control of fungal infection
[2] = tested on: Phytophthora infestans (PHYTIN); test: whole plant or invertebrate; details: in Solanum lycopersicum, 24 h, read-out: T3 PHYTIN in vivo 1 Day Protectant, control of fungal infection
[3] = tested on: Puccinia recondita (PUCCRT); test: Brown Rust of Wheat, whole plant 24 Hour Protectant (T5); details: wheat (cultivar Yuma), sprayed at 100 ppm, inoculated after 24 hours, read-out: T5 PUCCRT in vivo 1 Day Protectant, control of fungal infection
[4] = tested on: Septoria tritici (SEPTTR); test: Leaf Blotch of Wheat, whole plant 24 Hour Protectant (T6); details: Zymoseptoria tritici; wheat (cultivar Monon), sprayed at 100 ppm, inoculated after 24 hours; read-out: T6 SEPTTR in vivo 1 Day Protectant, control of fungal infection
[5] = tested on: Stagonospora nodorum (Leptosphaeria nodorum, LEPTNO); test: microbe, parasite or virus in culture; format: cell-based; details: Parastagonospora nodorum, read-out: T7 LEPTNO in vitro Growth Inhibition
[6] = tested on: Phytophthora infestans (PHYTIN); test: microbe, parasite or virus in culture; format: cell-based; details: in Secale cereale, read-out: T8 PHYTIN in vitro Growth Inhibition
[7] = tested on: Magnaporthe grisea (Pyricularia oryzae, PYRIOR); test: microbe, parasite or virus in culture; format: cell-based; details: read-out: T9 PYRIOR in vitro Growth Inhibition
[8] = tested on: Rhizoctonia solani (RHIZSO); test: microbe, parasite or virus in culture; format: cell-based; details: read-out: T10 RHIZSO in vitro Growth Inhibition
[9] = tested on: Mycosphaerella graminicola (Septoria tritici, SEPTTR); test: microbe, parasite or virus in culture; format: cell-based; details: Zymoseptoria tritici, read-out: T11 SEPTTR in vitro Growth Inhibition
[10] = tested on: Ustilago maydis (USTIMA); test: microbe, parasite or virus in culture; format: cell-based; details: Mycosarcoma maydis, read-out: T12 USTIMA in vitro Growth Inhibition
[11] = tested on: Erysiphe graminis (ERYSGT); test: Powdery Mildew of Wheat, whole plant 24 Hour Protectant (T1); details: Blumeria graminis, in Triticum aestivum, read-out: T1 ERYSGT in vivo 1 Day Protectant, control of fungal infection

SMILES	pest or weed control at 100 ppm [1]	pest or weed control at 100 ppm [2]	pest or weed control at 100 ppm [3]	pest or weed control at 100 ppm [4]	inhibition at 25 ppm [5]	inhibition at 25 ppm [6]	inhibition at 25 ppm [7]	inhibition at 25 ppm [8]	inhibition at 25 ppm [9]	inhibition at 25 ppm [10]	melting point	pest or weed control at 100 ppm [11]
CCOCOc1c(OC)ccnc1C(=O)N[C@H]1COC(=O)[C@H](Cc2ccccc2)[C@@H](OC(=O)C(C)C)[C@H](C)OC1=O [Compound 5]	75 to 100%	< 25%	75 to 100%	75 to 100%	> 80%	< 80%	< 80%	< 80%	< 80%	< 80%	60 to 62 °C	25 to 74%
COc1ccnc(C(=O)N[C@H]2COC(=O)[C@H](Cc3ccccc3)[C@@H](OC(=O)C(C)C)[C@H](C)OC2=O)c1OCOC(C)C [Compound 7]	75 to 100%	< 25%	75 to 100%	75 to 100%	> 80%	< 80%	< 80%	< 80%	< 80%	> 80%	124 to 127 °C	25 to 74%
COc1ccnc(C(=O)N[C@H]2COC(=O)[C@H](Cc3ccccc3)[C@@H](OC(=O)C(C)C)[C@H](C)OC2=O)c1OCOCC(C)C [Compound 9]	75 to 100%	< 25%	75 to 100%	25 to 74%	> 80%	< 80%	< 80%	> 80%	> 80%	> 80%	133 to 136 °C	< 25%
COc1ccnc(C(=O)N[C@H]2COC(=O)[C@H](Cc3ccccc3)[C@@H](OC(=O)C(C)C)[C@H](C)OC2=O)c1OCO[Si](C)(C)C [Compound 13]	75 to 100%	< 25%	75 to 100%	75 to 100%	> 80%	< 80%	< 80%	> 80%	< 80%	< 80%	50 to 52 °C	< 25%
COc1ccnc(C(=O)N[C@H]2COC(=O)[C@H](Cc3ccccc3)[C@@H](OC(=O)C(C)C)[C@H](C)OC2=O)c1OCOCCCl [Compound 14]	75 to 100%	< 25%	75 to 100%	75 to 100%	> 80%	< 80%	< 80%	< 80%	< 80%	< 80%	140 to 143 °C	< 25%
COc1ccnc(C(=O)N[C@H]2COC(=O)[C@H](Cc3ccccc3)[C@@H](OC(=O)C(C)C)[C@H](C)OC2=O)c1OCOCCC#N [Compound 15]	75 to 100%	< 25%	75 to 100%	75 to 100%	> 80%	< 80%	< 80%	> 80%	< 80%	> 80%	62 to 67 °C	< 25%
COc1ccnc(C(=O)N[C@H]2COC(=O)[C@H](Cc3ccccc3)[C@@H](OC(=O)C(C)C)[C@H](C)OC2=O)c1OCOC(C)=O [Compound 20]	75 to 100%	< 25%	75 to 100%	75 to 100%	> 80%	< 80%	< 80%	< 80%	< 80%	> 80%	146 to 147 °C	75 to 100%
CCCC(=O)OCOc1c(OC)ccnc1C(=O)N[C@H]1COC(=O)[C@H](Cc2ccccc2)[C@@H](OC(=O)C(C)C)[C@H](C)OC1=O [Compound 22]	75 to 100%	< 25%	75 to 100%	75 to 100%	> 80%	< 80%	< 80%	< 80%	< 80%	< 80%	102 to 105 °C	75 to 100%
COc1ccnc(C(=O)N[C@H]2COC(=O)[C@H](Cc3ccccc3)[C@@H](OC(=O)C(C)C)[C@H](C)OC2=O)c1OCOC(=O)C(C)(C)C [Compound 24]	75 to 100%	< 25%	75 to 100%	75 to 100%	< 80%	< 80%	> 80%	< 80%	> 80%	< 80%	178 to 179 °C	25 to 74%
COc1ccnc(C(=O)N[C@H]2COC(=O)[C@H](Cc3ccccc3)[C@@H](OC(=O)C(C)C)[C@H](C)OC2=O)c1OC(C)OC(C)=O (some centres unmarked) [Compound 25]	75 to 100%	< 25%	75 to 100%	75 to 100%	> 80%	< 80%	< 80%	< 80%	> 80%	> 80%	58 to 65 °C	< 25%
COc1ccnc(C(=O)N[C@H]2COC(=O)[C@H](Cc3ccccc3)[C@@H](OC(=O)C(C)C)[C@H](C)OC2=O)c1OCOC(=O)C1CC1 [Compound 26]	75 to 100%	< 25%	75 to 100%	75 to 100%	> 80%	< 80%	< 80%	< 80%	< 80%	< 80%	152 to 153 °C	25 to 74%
C=C(C)CO[C@H]1[C@H](C)OC(=O)[C@@H](NC(=O)c2nccc(OC)c2OCOC(C)=O)COC(=O)[C@@H]1Cc1ccccc1 [Compound 53]	75 to 100%	< 25%	75 to 100%	–	> 80%	> 80%	> 80%	< 80%	> 80%	< 80%	102 to 104 °C	< 25%
